This is an account of results in ChEMBL document CHEMBL1201862, “PubChem BioAssay data set” (2004).

Test systems include HT-29; SK-MEL-2; RPMI-8226; 786-0; ACHN; OVCAR-3; Hs-578T; NCI-H23; HCT-15; MDA-MB-231; OVCAR-5; MOLT-4; EKVX; RXF 393; SK-MEL-28; MCF7; SN12C; OVCAR-8; SR; Malme-3M.
Common to all, as to assay: DTP human tumour cell line panel, 48 h

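48-hour exposure; five concentrations; linearly interpolated endpoints. Abbreviation: GI50, concentration required for 50% inhibition of growth.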 The source made the active and inactive calls. No stated cut-off is given here; in the data, active = GI50 up to about 1.1 µM and inactive = higher.

Turning to `CCOC(=O)/C=C(\C(=O)OCC)n1cc(C)c(=O)n(Cc2cn(COCCOC(C)=O)nn2)c1=O`, the GI50 was 7.33 µM (inactive) in the experiment on HT-29; 17.3 µM (inactive) in the experiment on SK-MEL-2; 5.09 µM (inactive) in the experiment on RPMI-8226; 5.46 µM (inactive) in the experiment with 786-0; 7.62 µM (inactive) with ACHN; 13.2 µM (inactive) in the experiment with OVCAR-3. Besides, the GI50 in the experiment with Hs-578T was 17.1 µM (inactive); in the experiment on NCI-H23 it was 14.7 µM (inactive); in the experiment with HCT-15, 6.93 µM; with MDA-MB-231, 20.1 µM (inactive); in the experiment on OVCAR-5, 14.5 µM (inactive); in the experiment on MOLT-4, 3.79 µM (inactive). Moreover, the GI50 with EKVX is 10.5 µM (inactive); in the experiment with RXF 393, 11.6 µM (inactive); in the experiment with SK-MEL-28, 10.5 µM (inactive); in the experiment on MCF7, 6.78 µM (inactive); with SN12C it was 18.1 µM (inactive); in the experiment on OVCAR-8, 8.43 µM (inactive). For the same molecule, the GI50 in the experiment with SR is 1.44 µM (inactive).
`Clc1cc2ncn(C3CCCCO3)c2cc1Cl` (centres undefined): the GI50 in the experiment with HT-29 is 35.9 µM (inactive); with SK-MEL-2, > 100 µM (inactive); in the experiment on RPMI-8226, 66.8 µM (inactive); in the experiment with 786-0, 71.6 µM (inactive); in the experiment on OVCAR-3, 41 µM (inactive); in the experiment with Malme-3M, > 100 µM (inactive). The GI50 with Hs-578T is 23.6 µM (inactive); with NCI-H23, 70.3 µM (inactive); with HCT-15, 63.2 µM; in the experiment with MDA-MB-231, 74.1 µM (inactive); in the experiment on OVCAR-5, > 100 µM (inactive); in the experiment with MOLT-4 it was 33.9 µM (inactive). Also, the GI50 with EKVX was 20 µM (inactive); in the experiment with RXF 393, 44.7 µM (inactive); in the experiment on SK-MEL-28, 39.4 µM (inactive); in the experiment with MCF7, 74 µM (inactive); with SN12C, 99.1 µM (inactive); in the experiment with OVCAR-8 it was 56.6 µM (inactive). Besides, the GI50 with SR was 28.1 µM (inactive).
With `Cc1ccc(S(=O)(=O)N/N=C2\CC3C4CCC3C2C4)cc1` (centres undefined), the GI50 in the experiment with HT-29, in the experiment with SK-MEL-2, in the experiment on 786-0, in the experiment with ACHN, in the experiment with OVCAR-3 and with Malme-3M was > 100 µM (inactive) throughout. In addition, the GI50 with Hs-578T was > 100 µM (inactive); in the experiment on NCI-H23, > 100 µM (inactive); in the experiment on HCT-15, more than 100 µM; with MDA-MB-231, > 100 µM (inactive); in the experiment with OVCAR-5 it was > 100 µM (inactive); in the experiment with MOLT-4, > 100 µM (inactive). For the same molecule, the GI50 in the experiment on EKVX, in the experiment with RXF 393, with SK-MEL-28, in the experiment with MCF7, with SN12C and in the experiment on OVCAR-8 was > 100 µM (inactive) each time. Also, the GI50 in the experiment on SR was > 100 µM (inactive).
Take `CC1=CN(c2ccccc2)S2=C1c1sc3c(c1N2c1ccc(Br)cc1)CCCC3` (centres undefined): the GI50 in the experiment on HT-29, with SK-MEL-2, in the experiment on RPMI-8226, in the experiment on 786-0, with ACHN and in the experiment with OVCAR-3 was > 100 µM (inactive) throughout. Moreover, the GI50 with Hs-578T was > 100 µM (inactive); with NCI-H23, > 100 µM (inactive); in the experiment on HCT-15, more than 100 µM; with MDA-MB-231 it was > 100 µM (inactive); in the experiment with OVCAR-5 it was 96.8 µM (inactive); with MOLT-4, > 100 µM (inactive). Further, the GI50 in the experiment with EKVX, in the experiment with RXF 393, in the experiment on SK-MEL-28, with MCF7, with SN12C and in the experiment on OVCAR-8 was > 100 µM (inactive) throughout. In addition, the GI50 in the experiment on SR is > 100 µM (inactive).
In the case of `C/C(=C/CC[C@]1(CO)CC[C@]2(C)[C@H](CC[C@@H]3[C@@]4(C)CC[C@H](OC5OC(CO)C(O)C(O)C5OC5OC(CO)C(O)C(O)C5O)C(C)(C)[C@@H]4CC[C@]32C)[C@H]1O)CO` (some centres undefined), the GI50 with HT-29, in the experiment with RPMI-8226, in the experiment with 786-0, in the experiment on ACHN, in the experiment with OVCAR-3 and in the experiment with Malme-3M was > 100 µM (inactive) in each case. The GI50 in the experiment with Hs-578T is > 100 µM (inactive); in the experiment on NCI-H23, > 100 µM (inactive); with HCT-15, more than 100 µM; in the experiment on MDA-MB-231, > 100 µM (inactive); in the experiment with OVCAR-5 it was > 100 µM (inactive); in the experiment with MOLT-4, > 100 µM (inactive). The GI50 with EKVX, with RXF 393, in the experiment on SK-MEL-28, in the experiment with MCF7, in the experiment on SN12C and with OVCAR-8 was > 100 µM (inactive) throughout. In addition, in the experiment on SR, the GI50 is > 100 µM (inactive).
As to `OC12C3C4CC5C(C4[C@@H]1Br)C2[C@@](O)(c1c(F)c(F)c(F)c(F)c1F)C53` (some centres undefined), the GI50 in the experiment on HT-29 is 27.5 µM (inactive); in the experiment with SK-MEL-2, 24.5 µM (inactive); in the experiment with 786-0, 41.7 µM (inactive); with ACHN, 51.1 µM (inactive); in the experiment with OVCAR-3, 23.3 µM (inactive); with Hs-578T, 22.2 µM (inactive). Further, the GI50 with NCI-H23 is 31.7 µM (inactive); in the experiment with HCT-15, 39.8 µM; in the experiment on MDA-MB-231, > 100 µM (inactive); in the experiment on OVCAR-5, 68.2 µM (inactive); in the experiment with MOLT-4, 26.5 µM (inactive); in the experiment with EKVX it was 27.1 µM (inactive). For the same molecule, the GI50 in the experiment on RXF 393 was 24.3 µM (inactive); in the experiment on SK-MEL-28, 39.8 µM (inactive); in the experiment on MCF7 it was 20.4 µM (inactive); in the experiment with SN12C, > 100 µM (inactive); in the experiment on OVCAR-8, 32 µM (inactive); in the experiment on SR it was 21.3 µM (inactive).
As to `COc1ccc(-n2c(C)nc3ccc(/N=C/c4ccccc4)cc3c2=O)cc1`, the GI50 with HT-29 is > 100 µM (inactive); in the experiment on RPMI-8226 it was 51.2 µM (inactive); in the experiment with 786-0, > 100 µM (inactive); in the experiment with ACHN, > 100 µM (inactive); with OVCAR-3, > 100 µM (inactive); in the experiment on Malme-3M it was > 100 µM (inactive). In addition, the GI50 with Hs-578T was > 100 µM (inactive); with NCI-H23, > 100 µM (inactive); in the experiment on HCT-15, more than 100 µM; in the experiment with MDA-MB-231, > 100 µM (inactive); in the experiment on OVCAR-5, > 100 µM (inactive); in the experiment with MOLT-4 it was > 100 µM (inactive). Moreover, the GI50 in the experiment with EKVX, in the experiment with RXF 393, in the experiment with SK-MEL-28, in the experiment with MCF7, in the experiment on SN12C and in the experiment with OVCAR-8 was > 100 µM (inactive) each time. Also, the GI50 in the experiment on SR was > 100 µM (inactive).
As to `CN(C)c1nc(Cl)c2c(-c3ccccc3)c(-c3ccccc3)oc2n1`, the GI50 with HT-29 is 58.7 µM (inactive); in the experiment with RPMI-8226, 18.9 µM (inactive); with 786-0, 72.8 µM (inactive); in the experiment on ACHN, 70 µM (inactive); in the experiment on Hs-578T, 62.1 µM (inactive); with NCI-H23 it was 41.3 µM (inactive). For the same molecule, the GI50 is 31.6 µM in the experiment with HCT-15; 43 µM (inactive) in the experiment with MDA-MB-231; > 100 µM (inactive) in the experiment on OVCAR-5; 32.2 µM (inactive) in the experiment on MOLT-4; > 100 µM (inactive) with EKVX; 19.4 µM (inactive) in the experiment with RXF 393. For the same molecule, the GI50 with SK-MEL-28 was > 100 µM (inactive); in the experiment on MCF7, 28.9 µM (inactive); in the experiment with SN12C it was 39.5 µM (inactive); with OVCAR-8 it was > 100 µM (inactive); in the experiment with SR it was 21.8 µM (inactive).

For orientation: GI50 means the concentration at which growth is held to half of that of the control.
